Measured values taken from patent US5985937A, “Use of 2,4-distributed phenol derivatives as 5-lipoxygenase inhibitors” (priority 1994, dated 1999).

How the values were obtained:
[1] = test system: canine arthritis; assay: clinical trial on canine arthritis; type: in vivo, dog; set-up: key: +++: very good response, total recovery; ++: good response, functionability recovery; +: moderate response, improvement; -: negative response or no apparent improvement; conditions: 2 mg/kg day orally, 15 days
Procedure: After the diagnosis, each animal was treated with Bobel capsules during 45 days, with a follow up every 15 days. Blood, synovial liquid and urine samples were taken at the beginning and at the end of the treatment in order to perform the following tests: Synovial liquid analysis (cytology, cytokines 1,6,8 and TNF); LTB4; LTC4; PGE2; hematic count and leukocyte content; standard serum biochemistry; urine sediment; Rose-Wealer test; and radiology control. The methodology for clinical validation involved applying evaluating uniform parameters and classifying the results according to the following notations: (+++)=very good response, total recovery; (++)=good response, functionability recovery; (+)=moderate response, improvement; (-)=negative response or no apparent improvement.
After the diagnosis each animal was treated with capsules of Bobel-24 during 15 days. Blood, synovial liquid and urine samples were taken at the beginning and at the end of the treatment in order to perform the same tests as in example 13, using the same notation for the clinical evolution.

[2] = test system: dyspnea; assay: treatment of race horses with dyspnea; type: in vivo, horse; conditions: eleven race horses, intravenous 50 mg/day, one week
Procedure: Eleven race horses manifesting dyspnea of variable degree, accompanied of great sensibility in the movements and, in the majority of the cases respiratory anxiety, coughs and mucous-purulent nasal flux, were treated with an intravenous dose of Bobel-24 of 50 mg/day during one week.

With `Oc1c(I)cc(I)cc1I` [Bobel-24, 2,4,6-triiodophenol] the “Evolution, knee instability” value ([1]; German shepherd 2 years) was “++”, the “Evolution, osteochondritis” value ([1]; Mongrel 1 year) was “+++” and the “Evolution, arthritis” value ([1]; b340 Mongrel 8, b342 German shepherd 6, b343 Rottwailer 1, b347 Mongrel 7 years) was “+++”. The horses suffering relapse [2] was “None of the horses suffered relapse”, the improvement [2] was “The improvement was quite high” and the “time to disappearance of all the symptoms” value [2] was no more than 9 days. For the same compound, the “time to reincorporation to training, without any sequel” value [2] was 21 days.
